# Measured values taken from ChEMBL document CHEMBL1157012, “Neural computational prediction of oral drug absorption based on CODES 2D descriptors” (Eur J Med Chem, 2010).
# Assay: Human intestinal absorption in po dosed human
# Settings: in vivo
row,SMILES,Fa [%]
1,CCCc1nc2c(C)cc(-c3nc4ccccc4n3C)cc2n1Cc1ccc(-c2ccccc2C(=O)O)cc1,90
2,N[C@H](Cc1ccccc1)C(=O)N1CCC[C@H]1C(=O)O,100
3,CNS(=O)(=O)Cc1ccc2[nH]cc(CCN(C)C)c2c1,57
4,CC1=C(CC(=O)O)c2cc(F)ccc2/C1=C\c1ccc([S+](C)[O-])cc1 (stereo unspecified),90
5,COc1ccccc1N1CCN(CCCNc2cc(=O)n(C)c(=O)n2C)CC1,78
6,Cc1cccc(C)c1NC(=O)NCCCNC(C)C,71
7,CCOC(=O)[C@H](CCc1ccccc1)N[C@@H](C)C(=O)N1CCC[C@H]1C(=O)O,66
8,COc1ccc(CCN(C)CCCC(C#N)(c2ccc(OC)c(OC)c2)C(C)C)cc1OC (stereo unspecified),97
9,CCCC(=O)Nc1ccc(OCC(O)CNC(C)C)c(C(C)=O)c1 (stereo unspecified) [ACEBUTOLOL],80
10,CC(=O)Nc1ccc(O)cc1 [ACETAMINOPHEN],80
11,Cc1ccc(/C(=C\CN2CCCC2)c2cccc(/C=C/C(=O)O)n2)cc1 [ACRIVASTINE],88
12,Nc1nc2c(ncn2COCCO)c(=O)[nH]1 [ACYCLOVIR],23
13,Nc1ncnc2c1ncn2CCOCP(=O)(O)O [ADEFOVIR],16
14,Cc1nnc2n1-c1ccc(Cl)cc1C(c1ccccc1)=NC2 [ALPRAZOLAM],90
15,N=C(N)NC(=O)c1nc(Cl)c(N)nc1N [AMILORIDE],50
16,O=C1O[C@H]([C@@H](O)CO)C(O)=C1O [ASCORBIC ACID],35
17,CC(=O)Oc1ccccc1C(=O)O [ASPIRIN],82
18,NS(=O)(=O)c1cc(-c2nnn[nH]2)c(NCc2cccs2)cc1Cl [AZOSEMIDE],10
19,C[C@H]1[C@H](NC(=O)/C(=N\OC(C)(C)C(=O)O)c2csc(N)n2)C(=O)N1S(=O)(=O)O [AZTREONAM],1
20,CC(C)NCC(O)COc1ccc(CCOCC2CC2)cc1 (stereo unspecified) [BETAXOLOL],90
21,O=C1CN=C(c2ccccn2)c2cc(Br)ccc2N1 [BROMAZEPAM],84
22,Cn1c(=O)c2c(ncn2C)n(C)c1=O [CAFFEINE],100
23,CN(C)C(=O)OC1N=C(c2ccccc2)c2cc(Cl)ccc2N(C)C1=O (stereo unspecified) [CAMAZEPAM],100
24,C[C@H](CS)C(=O)N1CCC[C@H]1C(=O)O [CAPTOPRIL],84

row,SMILES,Fa [%]
1,CC1(C)S[C@@H]2[C@H](NC(=O)C(C(=O)Oc3ccccc3)c3ccccc3)C(=O)N2[C@H]1C(=O)O (stereo partly specified) [CARBENICILLIN PHENYL],99
2,CC1=C(C(=O)O)N2C(=O)[C@@H](NC(=O)[C@H](N)c3ccc(O)cc3)[C@H]2SC1 [CEFADROXIL],100
3,N[C@@H](C(=O)N[C@@H]1C(=O)N2C(C(=O)O)=C(CSc3c[nH]nn3)CS[C@H]12)c1ccc(O)cc1 [CEFATRIZINE],75
4,CO/N=C(\C(=O)N[C@@H]1C(=O)N2C(C(=O)O)=CCS[C@H]12)c1csc(N)n1 [CEFTIZOXIME],72
5,CO/N=C(\C(=O)N[C@@H]1C(=O)N2C(C(=O)OC(C)OC(C)=O)=C(COC(N)=O)CS[C@H]12)c1ccco1 (stereo partly specified) [CEFUROXIME AXETIL],44
6,O=C(N[C@H](CO)[C@H](O)c1ccc([N+](=O)[O-])cc1)C(Cl)Cl [CHLORAMPHENICOL],90
7,ClC(Cl)Cl [CHLOROFORM],100
8,CN/C(=N/CCSCc1nc[nH]c1C)NC#N [CIMETIDINE],64
9,COc1cc(N)c(Cl)cc1C(=O)NC1CCN(CCCOc2ccc(F)cc2)CC1OC (stereo unspecified) [CISAPRIDE],100
10,CCOC(=O)C(C)(C)Oc1ccc(Cl)cc1 [CLOFIBRATE],97
11,Clc1cccc(Cl)c1N=C1NCCN1 [CLONIDINE],95
12,O=C([O-])c1cc(=O)c2c(OCC(O)COc3cccc4oc(C(=O)[O-])cc(=O)c34)cccc2o1.[Na+].[Na+] [CROMOLYN SODIUM],4
13,N[C@@H]1CON=C1O [CYCLOSERINE],73
14,CO[C@H]1C[C@H](O[C@H]2CC[C@]3(C=O)[C@H]4CC[C@]5(C)[C@@H](C6=CC(=O)OC6)CC[C@]5(O)[C@@H]4CC[C@]3(O)C2)O[C@H](C)[C@H]1O [CYMARIN],47
15,CNCCCN1c2ccccc2CCc2ccccc21 [DESIPRAMINE],100
16,C[C@H](N)Cc1ccccc1 [DEXTROAMPHETAMINE],90
17,COc1ccc2c3c1O[C@H]1[C@@H](O)CC[C@H]4[C@@H](C2)N(C)CC[C@@]341 [DIHYDROCODEINE],88
18,CN(CCCCCCN(C)C(=O)Oc1ccc[n+](C)c1)C(=O)Oc1ccc[n+](C)c1.[Br-].[Br-] [DISTIGMINE BROMIDE],8
19,COc1cccc2c1C(=O)c1c(O)c3c(c(O)c1C2=O)C[C@@](O)(C(=O)CO)C[C@@H]3O[C@H]1C[C@H](N)[C@H](O)[C@H](C)O1 [DOXORUBICIN],12
20,NCCCC(N)(C(=O)O)C(F)F (stereo unspecified) [EFLORNITHINE],55
21,C[C@H](N[C@@H](CCc1ccccc1)C(=O)O)C(=O)N1CCC[C@H]1C(=O)O [ENALAPRILAT ANHYDROUS],25
22,C#C[C@]1(O)CC[C@H]2[C@@H]3CCc4cc(O)ccc4[C@H]3CC[C@@]21C [ETHINYL ESTRADIOL],100
23,COc1cc([C@@H]2c3cc4c(cc3[C@@H](O[C@@H]3O[C@@H]5CO[C@@H](C)O[C@H]5[C@H](O)[C@H]3O)[C@H]3COC(=O)[C@H]23)OCO4)cc(OC)c1O [ETOPOSIDE],50
24,CC(=O)OCC(CCn1cnc2cnc(N)nc21)COC(C)=O [FAMCICLOVIR],77

row,SMILES,Fa [%]
1,NC(N)=Nc1nc(CSCCC(N)=NS(N)(=O)=O)cs1 [FAMOTIDINE],28
2,NC(=O)OCC(COC(N)=O)c1ccccc1 [FELBAMATE],90
3,CCOC(=O)C1=C(C)NC(C)=C(C(=O)OC)C1c1cccc(Cl)c1Cl (stereo unspecified) [FELODIPINE],88
4,O=C(NCC1CCCCN1)c1cc(OCC(F)(F)F)ccc1OCC(F)(F)F (stereo unspecified) [FLECAINIDE],81
5,C[C@@H]1O[C@@H]1P(=O)(O)O [FOSFOMYCIN],31
6,O=CN(O)CCCP(=O)(O)O [FOSMIDOMYCIN],30
7,NCC1(CC(=O)O)CCCCC1 [GABAPENTIN],59
8,COc1ccc(CCN(C)CCCC(C#N)(c2cc(OC)c(OC)c(OC)c2)C(C)C)cc1OC (stereo unspecified) [GALLOPAMIL],100
9,Cc1ccc(S(=O)(=O)NC(=O)NN2CC3CCCC3C2)cc1 (stereo unspecified) [GLICLAZIDE],65
10,COc1ccc(Cl)cc1C(=O)NCCc1ccc(S(=O)(=O)NC(=O)NC2CCCCC2)cc1 [GLYBURIDE],100
11,NCC(=O)O [GLYCINE],100
12,CN1C2CCCC1CC(NC(=O)c1nn(C)c3ccccc13)C2 (stereo unspecified) [GRANISETRON],100
13,N=C(N)N/N=C/c1c(Cl)cccc1Cl [GUANABENZ],80
14,N=C(N)NCC1COc2ccccc2O1 (stereo unspecified) [GUANOXAN],50
15,NS(=O)(=O)c1cc2c(cc1Cl)NCNS2(=O)=O [HYDROCHLOROTHIAZIDE],69
16,CN(C)CCCN1c2ccccc2CCc2ccccc21 [IMIPRAMINE],100
17,Nc1cc(-c2ccncc2)c[nH]c1=O [INAMRINONE],93
18,CNC(=O)c1c(I)c(NC(C)=O)c(I)c(C(=O)[O-])c1I.[Na+] [IOTHALAMATE SODIUM],2
19,NNC(=O)c1ccncc1 [ISONIAZID],80
20,Cc1cc(NC(=O)C2=C(O)c3ccccc3S(=O)(=O)N2C)no1 [ISOXICAM],100
21,CC(C(=O)O)c1cccc(C(=O)c2ccccc2)c1 (stereo unspecified) [KETOPROFEN],92
22,O=C(c1ccccc1)c1ccc2n1CCC2C(=O)O (stereo unspecified) [KETOROLAC],90
23,CC(CCc1ccccc1)NCC(O)c1ccc(O)c(C(N)=O)c1 (stereo unspecified) [LABETALOL],95
24,OC[C@H]1O[C@@H](O[C@@H]2[C@@H](CO)O[C@](O)(CO)[C@H]2O)[C@H](O)[C@@H](O)[C@H]1O [LACTULOSE],1

row,SMILES,Fa [%]
1,Nc1ccn([C@@H]2CS[C@H](CO)O2)c(=O)n1 [LAMIVUDINE],85
2,Nc1nnc(-c2cccc(Cl)c2Cl)c(N)n1 [LAMOTRIGINE],98
3,Cc1c(OCC(F)(F)F)ccnc1C[S+]([O-])c1nc2ccccc2[nH]1 (stereo unspecified) [LANSOPRAZOLE],85
4,N[C@@H](Cc1ccc(O)c(O)c1)C(=O)O [LEVODOPA],86
5,C#C[C@]1(O)CC[C@H]2[C@@H]3CCC4=CC(=O)CC[C@@H]4[C@H]3CC[C@@]21CC [LEVONORGESTREL],100
6,CCC[C@@H]1C[C@@H](C(=O)N[C@@H]([C@H]2O[C@H](SC)[C@H](O)[C@@H](O)[C@H]2O)[C@@H](C)O)N(C)C1 [LINCOMYCIN],28
7,NCCCC[C@H](N[C@@H](CCc1ccccc1)C(=O)O)C(=O)N1CCC[C@H]1C(=O)O [LISINOPRIL ANHYDROUS],28
8,N[C@@H](C(=O)N[C@@H]1C(=O)N2C(C(=O)O)=C(Cl)CC[C@H]12)c1ccccc1 [LORACARBEF ANHYDROUS],100
9,CN1C(=O)C(O)N=C(c2ccccc2Cl)c2cc(Cl)ccc21 (stereo unspecified) [LORMETAZEPAM],100
10,CN1C(C(=O)Nc2ccccn2)=C(O)c2sc(Cl)cc2S1(=O)=O [LORNOXICAM],100
11,OC[C@@H](O)[C@@H](O)[C@H](O)[C@H](O)CO [MANNITOL],16
12,Cc1cnc(NC(=O)C2=C(O)c3ccccc3S(=O)(=O)N2C)s1 [MELOXICAM],90
13,O=S(=O)([O-])CCS.[Na+] [MESNA],77
14,CC(C)NCC(O)c1cc(O)cc(O)c1 (stereo unspecified) [METAPROTERENOL],44
15,CN(C)C(=N)N=C(N)N [METFORMIN],53
16,CCC(=O)C(CC(C)N(C)C)(c1ccccc1)c1ccccc1 (stereo unspecified) [METHADONE],80
17,CN(Cc1cnc2nc(N)nc(N)c2n1)c1ccc(C(=O)N[C@@H](CCC(=O)O)C(=O)O)cc1 [METHOTREXATE],70
18,C[C@](N)(Cc1ccc(O)c(O)c1)C(=O)O [METHYLDOPA],41
19,C[C@H]1C[C@@H]2[C@H]([C@@H](O)C[C@@]3(C)[C@H]2CC[C@]3(O)C(=O)CO)[C@@]2(C)C=CC(=O)C=C12 [METHYLPREDNISOLONE],82
20,Cc1cccc(C)c1OCC(C)N (stereo unspecified) [MEXILETINE],100
21,COCC(=O)O[C@]1(CCN(C)CCCc2nc3ccccc3[nH]2)CCc2cc(F)ccc2[C@@H]1C(C)C [MIBEFRADIL],69
22,COP(=O)(OC)OC(c1ccc(Cl)cc1)P(=O)(OC)OC (stereo unspecified) [MIFOBATE],81
23,Nc1cc(N2CCCCC2)nc(N)[n+]1[O-] [MINOXIDIL],98
24,COc1nc(C)nc(Cl)c1N=C1NCCN1 [MOXONIDINE],87
